# US20240207292A1, “BORONIC ACID COMPOUNDS, COMPOSITIONS AND METHODS” (Trustees of Tufts College, priority 2021, published 2024)
# Where two headings read alike, the source gives them in different places.
# How the values were obtained:
# [1] = Radiochemical purity over time at room temperature (radio-HPLC); format: physicochemical
# Method: The labeling efficiency was analyzed by instant thin layer chromatography (iTLC) and was typically >98%. For iTLC analysis, 1 μL of diluted labeling solution was applied to a strip of iTLC-SA chromatography paper (Agilent P/N A120B12, 114×2.5 mm) and developed in 0.1M citrate buffer (8 cm solvent migration) to assess free ^177Lu (Rf>0.5) and [^177Lu]-6555 (Rf˜0). The iTLC strips were analyzed using an Eckert & Ziegler AR-2000 Radio-TLC Imaging Scanner. The radiochemical purity was analyzed by high performance chromatography (HPLC) and was typically >90%. Briefly, the product was analyzed using a Phenomenex Luna 3.0 μm C18(2), 100 Å, 150 mm×4.6 mm column. Eluent A: 50 mM ammonium acetate in water, eluent B: acetonitrile. Gradient: 2% B from 0-5 min; 2% to 26% B from 5-20 min; 26% to 98% B from 20-25 min; 98% to 2% B from 25-26 min; 2% B from 26-30 min. Flow rate: 1.0 mL/min, Radio-HPLC detector: NaI (Eckert & Zeigler FC-1000), UV: 215 nm. The radiochemical purity remained >90% for three days at room temperature.
# (§1) The above depicted radiopharmaceutical [^177Lu]-6952 can be prepared as described in Example 20 using the radiochemical precursor 6952 (Example 21 above). The labeling efficiency was analyzed by instant thin layer chromatography (iTLC) and was typically >98%. […] The iTLC strips were analyzed using an Eckert & Ziegler AR-2000 Radio-TLC Imaging Scanner. The radiochemical purity was analyzed by high performance chromatography (HPLC) and was typically >90%. Briefly, the product was analyzed using a Phenomenex Luna 3.0 μm C18(2), 100A, 150 mm×4.6 mm column. […]
# as §1, with “The” for “The above depicted radiopharmaceutical [^177Lu]-6952 can be prepared as described in Example 20 using the radiochemical precursor 6952 (Example 21 above). The”, “>95%.” for “>98%.”, “>95%.” for “>90%.”
# The labeling efficiency was analyzed by instant thin layer chromatography (iTLC) and was typically >95%. […]
# [2] = biological target: recombinant human fibroblast activation protein (FAP) (Homo sapiens (Human), UniProt Q12884); test: In vitro assay fibroblast activation protein IC50 (Example 21); format: biochemical
# Chain of recombinant human fibroblast activation protein (FAP) (Q12884 whole entry): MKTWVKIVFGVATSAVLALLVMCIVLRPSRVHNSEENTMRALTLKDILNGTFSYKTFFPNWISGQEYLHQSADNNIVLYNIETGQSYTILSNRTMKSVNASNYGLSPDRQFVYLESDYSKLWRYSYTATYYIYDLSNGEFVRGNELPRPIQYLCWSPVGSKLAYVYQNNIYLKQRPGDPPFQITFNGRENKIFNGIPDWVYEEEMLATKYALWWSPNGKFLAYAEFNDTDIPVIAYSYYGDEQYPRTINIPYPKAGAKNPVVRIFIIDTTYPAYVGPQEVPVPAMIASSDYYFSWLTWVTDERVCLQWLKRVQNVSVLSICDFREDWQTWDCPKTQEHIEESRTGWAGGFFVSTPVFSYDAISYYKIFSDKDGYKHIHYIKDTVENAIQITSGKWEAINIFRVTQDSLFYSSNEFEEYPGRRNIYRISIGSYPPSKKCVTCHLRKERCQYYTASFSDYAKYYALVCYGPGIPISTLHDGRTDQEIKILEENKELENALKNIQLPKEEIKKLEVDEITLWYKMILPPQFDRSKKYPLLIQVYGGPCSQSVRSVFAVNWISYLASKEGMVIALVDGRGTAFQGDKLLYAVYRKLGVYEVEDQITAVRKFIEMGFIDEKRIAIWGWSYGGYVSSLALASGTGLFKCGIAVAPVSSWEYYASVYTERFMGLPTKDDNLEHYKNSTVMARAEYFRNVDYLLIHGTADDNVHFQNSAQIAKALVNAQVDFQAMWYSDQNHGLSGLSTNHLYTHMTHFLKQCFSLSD
# Method: (§2) The purpose of this assay is to determine the IC50 of various inhibitors against recombinant human dipeptidyl peptidase IV (DPPIV), fibroblast activation protein (FAP) or prolyl oligopeptidase (PREP).
# (§3) The assays are conducted in the following steps: • 1 Dissolve the compound in DMSO to a final concentration of 100 mM. From this, prepare a 1 mM stock at pH 7.5 in 50 mM Tris, 140 mM NaCl Buffer (FAP)/pH 7.5 in 25 mM Tris, 250 mM NaCl Buffer/[…]. • 2. Serial dilute (1:10) the 1 mM compound stocks prepared previously into the appropriate assay buffer (FAP: 50 mM Tris, 140 mM NaCl, pH 7.5/PREP: 25 mM Tris, 0.25 M NaCl, pH 7.5/DPPIV: 25 mM Tris, pH 8.0) to one row of a 96-well plate. • 3. […] Dilute the enzymes into their appropriate assay buffers. The final enzyme concentrations should be 0.1, 1.2, and 0.6 nM for DPPIV, FAP and PREP respectively. Add 180 μL to each well needed in columns 2-10. Column 1(A,B,C) should be prepared with 200 μl of appropriate assay buffer as control. Column 1(D,E,F,G,H) should be prepared with 20 μl of appropriate assay buffer and 180 ul enzyme as no inhibitor control. • 5. Add 20 μL of the compound of interest from the dilution plate prepared in step 2 to columns 2-10 of the assay plate where appropriate. Each sample should be tested in triplicate. Allow this to incubate for 10 minutes at room temperature, shaking the plate for the first two minutes. • 6. Add 10 μL of 20× substrate prepared in step 3 to each well and allow this to incubate for 15 minutes at room temperature, shaking the plate for the first two minutes. • 7. Read the fluorescence at λex: 380, λem: 460. (DPcore=[dAla|dSer|Gly]-[boroPro|Pro-nitrile], XXaa=alpha-amino acid)
# [3] = biological target: recombinant human FAP (Homo sapiens (Human), UniProt Q12884); test: In vitro enzyme IC50 assay, FAP (Example 16); format: biochemical; settings: 10 min preincubation at 25° C.; Z-Gly-Pro-AMC
# Chain of recombinant human FAP (Q12884 whole entry): as above
# Method: Biological Materials: For the in vitro IC50 determination assays, recombinant human DPPIV, DPP9, FAP, and PREP were purchased from R&D Systems, and DPP8 was from Biomol International. Buffer systems used were A (25 mM Tris, pH 8.0), B (50 mM Tris, pH 7.5), C (50 mM Tris, 140 mM NaCl, pH 7.5), D (25 mM Tris, 250 mM NaCl, pH 7.5), and E (20 mM Tris, 20 mM KCl, pH 7.4). […] Substrate Specificity Assay. Peptide libraries (0.21 mM) were incubated for 24 h with 1 nM FAP in buffer E at 37° C. The reaction was quenched by the addition of 1.2 N HCl. The samples were analyzed by reverse-phase HPLC-MS on a Thermo Finnigan LCQ Duo, quantifying the peaks in the resulting base peak chromatograms. Relative cleavage values were determined by comparing the postquench abundance of intact peptides to those in the initial library.
# In Vitro Enzyme IC50 Assays. Enzymatic activity of DPPIV, DPP8, DPP9, FAP, and PREP was measured at 25° C. on a Molecular Devices M2e multidetection microtiter plate reader, monitoring the fluorescence at an excitation wavelength of 380 nm and an emission wavelength of 460 nm. The substrate was either H-Gly-Pro-AMC for the DPPIV, DPP8, and DPP9 assays or Z-Gly-Pro-AMC for the FAP and PREP assays. […] The final enzyme concentrations were 0.1, 0.8, 0.4, 1.2, and 0.6 nM for DPPIV, DPP8, DPP9, FAP, and PREP, respectively. […] Those prepared in pH 2.0 solution were preincubated at 25° C. for 4 h prior to dilution. Immediately prior to the commencement of the experiment, the 100 mM stocks were further diluted to 10^-3 M in the appropriate assay buffer, from which 1:10 serial dilutions were prepared. All inhibitors were tested in triplicate.
# [4] = Degradation in aqueous solution of pH about 3 during HPLC purification and lyophilization; settings: during HPLC purification and subsequent lyophilization
# [5] = biological target: recombinant human dipeptidyl peptidase IV (DPPIV) (Homo sapiens (Human), UniProt P27487); test: In vitro assay dipeptidyl peptidase IV IC50 (Example 21); format: biochemical
# Chain of recombinant human dipeptidyl peptidase IV (DPPIV) (P27487 whole entry): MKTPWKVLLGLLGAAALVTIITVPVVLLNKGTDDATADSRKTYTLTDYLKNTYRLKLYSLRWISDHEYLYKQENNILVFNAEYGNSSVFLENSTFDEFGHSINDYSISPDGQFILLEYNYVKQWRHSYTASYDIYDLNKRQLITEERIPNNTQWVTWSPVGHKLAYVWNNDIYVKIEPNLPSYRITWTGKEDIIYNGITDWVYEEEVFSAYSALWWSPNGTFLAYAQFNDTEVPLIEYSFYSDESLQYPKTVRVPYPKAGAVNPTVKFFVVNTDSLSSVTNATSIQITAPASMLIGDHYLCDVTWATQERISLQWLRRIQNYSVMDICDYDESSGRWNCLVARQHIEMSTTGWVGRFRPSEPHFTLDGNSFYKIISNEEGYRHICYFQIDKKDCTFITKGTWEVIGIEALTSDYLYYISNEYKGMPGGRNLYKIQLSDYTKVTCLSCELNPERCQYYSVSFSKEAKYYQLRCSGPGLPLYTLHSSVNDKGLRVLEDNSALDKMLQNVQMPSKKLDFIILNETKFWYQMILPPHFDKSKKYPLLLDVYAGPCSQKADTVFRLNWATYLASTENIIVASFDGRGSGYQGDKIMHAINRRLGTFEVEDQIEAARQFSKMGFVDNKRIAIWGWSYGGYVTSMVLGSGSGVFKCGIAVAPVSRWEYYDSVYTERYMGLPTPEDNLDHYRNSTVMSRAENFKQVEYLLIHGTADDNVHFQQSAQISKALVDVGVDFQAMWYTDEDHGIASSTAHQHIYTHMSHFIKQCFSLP
# Method: as §2, §3
# [6] = biological target: recombinant human prolyl oligopeptidase (PREP) (Homo sapiens (Human), UniProt P48147); test: In vitro assay prolyl oligopeptidase IC50 (Example 21); format: biochemical
# Chain of recombinant human prolyl oligopeptidase (PREP) (P48147 whole entry): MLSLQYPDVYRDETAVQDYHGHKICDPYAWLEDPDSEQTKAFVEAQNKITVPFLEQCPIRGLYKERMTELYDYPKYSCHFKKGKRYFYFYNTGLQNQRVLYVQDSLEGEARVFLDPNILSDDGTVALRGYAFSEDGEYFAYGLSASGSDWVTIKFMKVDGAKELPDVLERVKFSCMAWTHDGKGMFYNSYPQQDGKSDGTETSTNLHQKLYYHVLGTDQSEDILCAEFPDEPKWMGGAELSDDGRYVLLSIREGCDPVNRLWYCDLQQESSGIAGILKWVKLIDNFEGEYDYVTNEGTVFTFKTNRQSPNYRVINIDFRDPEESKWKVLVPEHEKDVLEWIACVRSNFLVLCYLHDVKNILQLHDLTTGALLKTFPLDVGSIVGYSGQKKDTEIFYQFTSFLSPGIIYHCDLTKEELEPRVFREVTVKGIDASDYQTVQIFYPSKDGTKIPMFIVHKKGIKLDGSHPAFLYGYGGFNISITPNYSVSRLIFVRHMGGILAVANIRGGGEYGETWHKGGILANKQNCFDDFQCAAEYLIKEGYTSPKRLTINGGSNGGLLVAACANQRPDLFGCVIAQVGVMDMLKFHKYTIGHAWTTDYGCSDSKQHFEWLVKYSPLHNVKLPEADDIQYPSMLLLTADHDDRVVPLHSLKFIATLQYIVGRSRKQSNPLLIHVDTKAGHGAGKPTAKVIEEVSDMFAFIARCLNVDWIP
# Method: as §2, §3
# [7] = for three days at room temperature, formulation with N-acetyl methionine
Molecule,IC50 [2] [nM],IC50 [3] [nM],also measured
C[C@@H](NC(=O)[C@H]1CC[C@H](CNC(=O)CN2CCN3CCN4CCN(CC2)CC(=O)O[CH2][Lu]([CH2]COC(=O)C3)[CH2]COC(=O)C4)CC1)C(=O)N1CCC[C@H]1B(O)O [[^177Lu]-6952],–,–,"radiochemical purity remained [1, 7]: > 90%"
"N[C@@H](CCCCNC(=O)CN1CCN(CC(=O)O)CCN(CC(=O)O)CCN(CC(=O)O)CC1)C(=O)N1CCC[C@H]1B(O)O [compound 6549, Lys(DOTA)-boroPro]",2.9,3.2,–
C[C@@H](NC(=O)c1ccc(CNC(=O)CN2CCN3CCN4CCN(CC2)CC(=O)O[CH2][Ga]([CH2]COC(=O)C3)[CH2]COC(=O)C4)cc1)C(=O)N1CCC[C@H]1B(O)O [[^68Ga]-6555],–,–,radiochemical purity remained ([1]; for 4 hours at room temperature): > 95%
C[C@@H](NC(=O)c1ccc(CNC(=O)CN2CCN3CCN4CCN(CC2)CC(=O)[O][Ga]([O]C(=O)C3)[O]C(=O)C4)cc1)C(=O)N1CCC[C@H]1B(O)O [6555GA],55,–,degradation in aqueous solution [4]: did not observe any sign of degradation; IC50 [5]: > 100000 nM; IC50 [6]: 3600 nM
C[C@@H](NC(=O)c1ccc(CNC(=O)CN2CCN3CCN4CCN(CC2)CC(=O)O[CH2][Lu]([CH2]COC(=O)C3)[CH2]COC(=O)C4)cc1)C(=O)N1CCC[C@H]1B(O)O [[^177Lu]-6555],–,–,"radiochemical purity remained [1, 7]: > 90%"
"C[C@@H](NC(=O)c1ccc(NNC(=O)CNC(=O)CN2CCN(CC(=O)O)CCN(CC(=O)O)CCN(CC(=O)O)CC2)cc1)C(=O)N1CCC[C@H]1B(O)O [6487S, DOTA-Gly-HyBz-D-Ala-boroPro]",–,2.1,–
"C[C@@H](NC(=O)c1ccc(NC(=O)CN2CCN(CC(=O)O)CCN(CC(=O)O)CCN(CC(=O)O)CC2)cc1)C(=O)N1CCC[C@H]1B(O)O [compound 6572, DOTA-PABA-D-Ala-boroPro]",1.6,1.6,–
"C[C@@H](NC(=O)c1ccc(NNC(=O)CCNC(=O)CN2CCN3CCN(CC(=O)O)CCN(CC2)CC(=O)[O][Cu][O]C(=O)C3)cc1)C(=O)N1CCC[C@H]1B(O)O [compound 6488, DOTA[Cu]-betaAla-HyBz-D-Ala-boroPro]",34.3,34.3,–
"C[C@@H](NC(=O)c1ccc(NNC(=O)CCNC(=O)CN2CCN(CC(=O)O)CCN(CC(=O)O)CCN(CC(=O)O)CC2)cc1)C(=O)N1CCC[C@H]1B(O)O [6488S, DOTA-betaAla-HyBz-D-Ala-boroPro]",8.8,8.8,–
"C[C@@H](NC(=O)c1ccc(NNC(=O)CN2CCN(CC(=O)O)CCN(CC(=O)O)CCN(CC(=O)O)CC2)cc1)C(=O)N1CCC[C@H]1B(O)O [4536B, DOTA-HyBz-D-Ala-boroPro]",–,2.7,–
DOTA[(Cu(II)]-Ser-D-Ala-boroPro [6509CU],–,128,"IC50 ([2]; Z-Gly-Pro-AMC, 1.2 nM enzyme): 128 nM"
"C[C@@H](NC(=O)c1ccc(NNC(=O)CCCNC(=O)CN2CCN(CC(=O)O)CCN(CC(=O)O)CCN(CC(=O)O)CC2)cc1)C(=O)N1CCC[C@H]1B(O)O [6489S, DOTA-GABA-HyBz-D-Ala-boroPro]",–,0.8,–
"C[C@@H](NC(=O)c1ccc(CNC(=O)CN2CCN(CC(=O)O)CCN(CC(=O)O)CCN(CC(=O)O)CC2)nc1)C(=O)N1CCC[C@H]1B(O)O [compound 6556, DOTA-aminomethyl-Nic-D-Ala-boroPro]",2.4,2.4,–
"CC(C)[C@H](NC(=O)CNC(=O)CN1CCN(CC(=O)O)CCN(CC(=O)O)CCN(CC(=O)O)CC1)C(=O)N[C@H](C)C(=O)N1CCC[C@H]1B(O)O [compound 6521, DOTA-Gly-Val-D-Ala-boroPro]",–,6.9,"IC50 ([2]; Z-Gly-Pro-AMC, 1.2 nM enzyme): 6.9 nM"
"C[C@@H](NC(=O)c1ccc(NNC(=O)CN2CCN3CCN(CC(=O)O)CCN(CC2)CC(=O)[O][Cu][O]C(=O)C3)cc1)C(=O)N1CCC[C@H]1B(O)O [compound 6481, DOTA[Cu(II)]-HyBz-D-Ala-boroPro]",–,10.3,–
